From patent US10053451B2, “Heterocyclic estrogen receptor modulators and uses thereof” (priority 2015, dated 2018)

Legend:
Assay type in all cases: cell-based
MCF-7 cells = test: Breast Cancer Cell Viability Assay (CellTiter-Glo); conditions: 5 days of compound exposure; for IC50: Homo sapiens, MCF7, 120 h, read-out: MCF7 viab IC50
Experimental: The following day a 10 point, serial 1:5 dilution of each compound was added to the cells in 16 μL at a final concentration ranging from 10-0.00000 μM. After 5 days of compound exposure, 16 μL of CellTiter-GLo (Promega, Madison Wis.) was added to the cells, and the relative luminescence units (RLUs) of each well were determined. CellTiter-Glo added to 32 μL of medium without cells was used to obtain a background value.

ER-α = target: T1, ER-α (Homo sapiens, UniProt P03372); test: ER-α In Cell Western Assay; conditions: MCF7 cells, 4 hours post compound addition, SP1 anti-ER antibody; read-out: ICW (SP1) max response
T1 construct: MCF7 cells were trypsinized and washed twice; endogenous in cells; host or cells: MCF7 breast cancer cells
T1 sequence (P03372 1-595): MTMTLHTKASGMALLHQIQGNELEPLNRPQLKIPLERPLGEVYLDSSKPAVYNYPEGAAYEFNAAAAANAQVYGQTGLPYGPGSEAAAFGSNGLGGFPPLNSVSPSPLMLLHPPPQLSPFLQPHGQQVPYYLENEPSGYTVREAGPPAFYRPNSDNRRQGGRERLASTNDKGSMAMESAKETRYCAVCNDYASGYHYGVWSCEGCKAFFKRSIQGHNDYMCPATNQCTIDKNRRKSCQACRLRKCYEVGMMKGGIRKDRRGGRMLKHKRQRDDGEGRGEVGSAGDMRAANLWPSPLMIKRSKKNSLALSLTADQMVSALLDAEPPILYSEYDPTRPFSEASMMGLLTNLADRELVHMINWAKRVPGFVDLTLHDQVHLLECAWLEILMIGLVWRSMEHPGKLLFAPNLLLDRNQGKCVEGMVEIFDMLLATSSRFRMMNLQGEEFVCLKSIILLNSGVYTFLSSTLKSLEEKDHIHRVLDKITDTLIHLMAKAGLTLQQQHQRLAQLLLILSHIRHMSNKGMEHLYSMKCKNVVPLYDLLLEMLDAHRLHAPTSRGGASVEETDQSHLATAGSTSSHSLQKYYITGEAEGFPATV
Experimental: MCF7 cells were trypsinized and washed twice in Phenol Red Free RPMI containing 5% Charcoal Dextran Stripped serum with 20 mM HEPES and NEAA, then adjusted to a concentration of 200,000 cells per mL with the same medium. Next, 16 μL of the cell suspension (3200 cells) was added to each well of a poly-D-lysine coated 384 well plate, and the cells were incubated at 37° C. over 4 days to allow the cells to adhere and grow. […] At 4 hours post compound addition, the cells were fixed by adding 16 μL of 30% formalin to the 32 μL of cells and compound (10% formalin final concentration) for 20 minutes. Cells were then washed twice with PBS Tween 0.1% and then permeabilized in PBS 0.1% Triton (50 μl/well) for additional 15 minutes. The PBS 0.1% triton was decanted, and the cells were washed: LI-COR blocking buffer (50 μL/well) was added, the plate was spun at 3000 rpm, and then the blocking buffer was decanted. Additional LI-COR blocking buffer (50 μL/well) was added, and the cells were incubated overnight at 4° C. The blocking buffer was decanted, and the cells were incubated overnight at 4° C. with SP1 (Thermo Scientific) anti-ER rabbit monoclonal antibody diluted 1:1000 in LI-COR blocking buffer/0.1% Tween-20. Wells which were treated with blocking buffer with Tween but no antibody were used as a background control. Wells were washed twice with PBS Tween 0.1% to remove free SP1 antibodies, and the cells were incubated at room temp for 60-90 minutes in LI-COR goat anti-rabbit IRDye™ 800CW (1:1000) and DRAQ5 DNA dye (1:10000 of 5 mM stock solution) diluted in LI-COR blocking buffer containing 0.1% Tween-20 and 0.01% SDS. Cells were then washed with 0.1% Tween-20/PBS three times. Plates were scanned on a LI-COR Odyssey infrared imaging system. Integrated intensities in the 800 nm channel and 700 nm channel were measured to determine levels of ER-α and DNA respectively. Percent ER levels were determined as follows: (Integrated intensity […] sample/integrated intensity 700 nm sample)/(Integrated intensity 800 nm untreated cells/integrated intensity 700 nm untreated cells)×100=% ER levels.

[1] = target: T2, estrogen receptor alpha (ESR1) (Homo sapiens, UniProt P03372); test: Breast Cancer Cell ERa High Content Fluorescence Imaging Assay (ER-alpha MCF7 Assay); conditions: MCF7 cells, 4 hours; plateau of maximal effect; DMSO = 0%, 5 nM Fulvestrant = 100% change in ESR1
T2 construct: MCF7 cells were trypsinized and washed twice; endogenous in cells; host or cells: MCF7 breast cancer cells
T2 sequence (P03372 1-595): T1 sequence (P03372 1-595)
Experimental: Cell plates were incubated at 37° C., for 4 hours. Fixation and permeabilization were carried out using a Biotek EL406 plate washer and dispenser as follows. […] Samples were incubated 30 minutes. Well contents was aspirated and 50 uL/well of Phosphate Buffered Saline (PBS) containing 0.5% w/v bovine serum albumen, 0.5% v/v Triton X-100 (Antibody Dilution Buffer) was added to each well. Samples were incubated for 30 minutes. Well contents were aspirated and washed 3 times with 100 uL/well of PBS. Immunofluorescence staining of estrogen receptor alpha (ESR1) was carried out using a Biotek EL406 plate washer and dispenser as follows. […] Samples were incubated for 2 hours at room temperature. Samples were washed 4 times with 100 uL/well of PBS. […] Samples were incubated for 2 hours at room temperature. Samples were washed 3 times with 100 uL/well of PBS using a Biotek EL406. Quantitative fluorescence imaging of ESR1 was carried out using a Cellomics Arrayscan V (Thermo). […] Channel 1 (DNA stain) was used to define the nuclear region (Circ). […] The “Robust Fit” method was used to define the inflexion point of curve (EC50) and the plateau of the maximal effect (Sinf).

IC50 (MCF-7 cells) [nM] | Emax (ER-α) [%] | ER-alpha MCF7 Sinf (%) [1] [%] | SMILES | MCF7 viab max response (MCF-7 cells)
7.08 | 69.9 | – | CC1=C(c2cccc(O)c2)C(c2ccc(OCCN3CCCC3)cn2)Oc2ccc(O)cc21 (stereo not shown) [Example 6, 3-(3-Hydroxyphenyl)-4-methyl-2-(5-(2-(pyrrolidin-1-yl)ethoxy)pyridin-2-yl)-2H-chromen-6-ol] | 56.9
1.23 | 86.7 | – | CC1=C(c2cccc(O)c2)C(c2ccc(OC[C@H](C)N3CC[C@@H](C)C3)cn2)Oc2ccc(O)cc21 (stereo partly drawn) [Example 5, 3-(3-Hydroxyphenyl)-4-methyl-2-(5-((S)-2-((R)-3-methylpyrrolidin-1-yl)propoxy)pyridin-2-yl)-2H-chromen-6-ol] | 64.2
0.13 | 76.1 | – | CC1=C(c2cccc(O)c2)C(c2ccc(OC[C@H](C)N3CC[C@@H](C)C3)nc2)Oc2ccc(O)cc21 (stereo partly drawn) [Example 2, 3-(3-Hydroxyphenyl)-4-methyl-2-(6-((S)-2-((R)-3-methylpyrrolidin-1-yl)propoxy)pyridin-3-yl)-2H-chromen-6-ol] | 56.9
0.18 | 65.9 | – | CC1=C(c2cccc(O)c2)C(c2ccc(OCCN3CCCC3)nc2)Oc2ccc(O)cc21 (stereo not shown) [Example 1, 3-(3-Hydroxyphenyl)-4-methyl-2-(6-(2-(pyrrolidin-1-yl)ethoxy)pyridin-3-yl)-2H-chromen-6-ol] | 53.6
1.29 | 87.1 | – | CC1=C(c2cc(O)c(F)c(F)c2)C(c2ccc(OC[C@H](C)N3CC[C@@H](C)C3)cn2)Oc2ccc(O)cc21 (stereo partly drawn) [Example 7, 3-(3,4-Difluoro-5-hydroxyphenyl)-4-methyl-2-(5-((S)-2-((R)-3-methylpyrrolidin-1-yl)propoxy)pyridin-2-yl)-2H-chromen-6-ol] | 72.1
2.56 | 74.8 | – | CC1=C(c2ccc3[nH]ncc3c2)C(c2ccc(OC[C@H](C)N3CC[C@@H](C)C3)cc2)Oc2ccc(O)cc21 (stereo partly drawn) [Example 12, 3-(1H-Indazol-5-yl)-4-methyl-2-(4-((S)-2-((R)-3-methylpyrrolidin-1-yl)propoxy)phenyl)-2H-chromen-6-ol] | 60.1
0.74 | 83.4 | – | CC1=C(c2ccc(O)cc2F)C(c2ccc(OC[C@H](C)N3CC[C@@H](C)C3)cn2)Oc2ccc(O)cc21 (stereo partly drawn) [Example 10, 3-(2-Fluoro-4-hydroxyphenyl)-4-methyl-2-(5-((S)-2-((R)-3-methylpyrrolidin-1-yl)propoxy)pyridin-2-yl)-2H-chromen-6-ol] | 70.9
– | – | 98.9 | CC1=C(C2CCOC2)C(c2ccc(OCCN3CC(CF)C3)cc2)Oc2ccc(O)cc21 (stereo not shown) [Example 29, 2-(4-(2-(3-(fluoromethyl)azetidin-1-yl)ethoxy)phenyl)-4-methyl-3-(tetrahydrofuran-3-yl)-2H-chromen-6-ol] | –
– | – | 95.4 | CC1=C(C2=CC(O)CC2)C(c2ccc(OCCN3CC(CF)C3)cc2)Oc2ccc(O)cc21 (stereo not shown) [Example 47, 2-[4-[2-[3-(fluoromethyl)azetidin-1-yl]ethoxy]phenyl]-3-(3-hydroxycyclopenten-1-yl)-4-methyl-2H-chromen-6-ol] | –
– | – | 99.2 | CC1=C(c2cncc(C)c2)C(c2ccc(OCCN3CC(CF)C3)cc2)Oc2ccc(O)cc21 (stereo not shown) [Example 37, 2-{4-[2-(3-Fluoromethyl-azetidin-1-yl)-ethoxy]-phenyl}-4-methyl-3-(5-methyl-pyridin-3-yl)-2H-chromen-6-ol] | –
– | – | 97.3 | CC1=C(c2cncc(F)c2)C(c2ccc(OCCN3CC(CF)C3)cc2)Oc2ccc(O)cc21 (stereo not shown) [Example 43, 2-{4-[2-(3-Fluoromethyl-azetidin-1-yl)-ethoxy]-phenyl}-3-(5-fluoro-pyridin-3-yl)-4-methyl-2H-chromen-6-ol] | –

SMILES | IC50 (MCF-7 cells) [nM] | Emax (ER-α) [%] | ER-alpha MCF7 Sinf (%) [1] [%] | MCF7 viab max response (MCF-7 cells)
C[C@]12CC[C@@H]3c4ccc(O)cc4C[C@@H](CCCCCCCCC[S+]([O-])CCCC(F)(F)C(F)(F)F)[C@H]3[C@@H]1CC[C@@H]2O (stereo partly shown) [fulvestrant, reference compound] | 0.56 | 93.6 | – | 74.6
